According to publication PMC5727211, “Development of Erasin: a chromone-based STAT3 inhibitor which induces apoptosis in Erlotinib-resistant lung cancer cells” (Scientific Reports, 2017):

How the values were obtained:
[1] = test system: MDA-MB-453 cells; assay: Apoptosis assay (Annexin V/7-AAD flow cytometry), MDA-MB-453 cells; assay type: cell-based, human; conditions: 24 h
Method: (§1) MDA-MB-453 cells (3 × 10^5 cells per well), MDA-MB-231 cells (2 × 10^5 cells per well), parental HCC-827 or Erlotinib-resistant HCC-827 cells (both 2.5 × 10^5 cells per well) were seeded in 24-well tissue culture plates (Corning #3524) and treated with test compound or DMSO (final DMSO concentration: 0.2%) for 24 h. Afterwards, the cell culture supernatant from each well was collected. Cells were washed twice with warm PBS and incubated with Accutase (BD Bioscience #561527) at 37 °C for 10 min. The supernatants were then returned to each well to neutralize the Accutase solution and the cells were centrifuged at 3000 rpm, at 4 °C for 5 min. The cell pellets were washed twice with cold PBS and centrifuged again. PE Annexin V Apoptosis Detection Kit I (BD Bioscience, 559763) was used for cell staining. Cells were resuspended in 1 x binding buffer and incubated with PE Annexin V and 7-AAD at 4 °C for 30 min. Apoptosis was measured using an LSR II flow cytometer (BD Bioscience). Experiments were carried out in at least triplicate.

[2] = test system: STAT3 Tyr705 phosphorylation; assay: Western Blot, STAT3 Tyr705 phosphorylation in parental HCC-827 cells; assay type: cell-based, human; conditions: 24 h
Method: HepG2 cells were plated in 6-well plates (Corning #3516) and allowed to reach approximately 60% confluence. The medium was then replaced with serum-free medium for 24 h. Cells were subsequently pre-treated with compound or DMSO (final DMSO concentration: 0.2%) for 1 h at 37 °C, prior to stimulation for 15 min with 50 ng/mL IFNγ (Pepro Tech, for STAT1 phosphorylation), or 30 min with 50 ng/mL IL-6 (Pepro Tech, for STAT3 phosphorylation). Cells were treated with test compound or DMSO for 1 h (final DMSO concentration 0.2%). K562 cells (1.5 × 10^6 cells per well) were seeded in 6-well plates (Corning #3516) and were treated with test compound or DMSO for 1.5 h (final DMSO concentration 0.2%). […] Afterwards, cells were treated with the test compounds or DMSO (final DMSO concentration: 0.2%) for 24 h. Afterwards, the cells were washed twice with cold phosphate buffered saline (PBS). […]
Lysates were separated on a polyacrylamide gel under denaturing conditions, and transferred to a nitrocellulose membrane. STAT phosphorylation was assessed using rabbit monoclonal antibodies against the phosphorylated forms only of STAT1, STAT3 or STAT5 (Cell Signaling, 1:1000) with secondary antibody swine anti-rabbit HRP from Dako, 1:3000), followed by reblotting with rabbit monoclonal antibodies against total STAT1, STAT3 or STAT5 (Cell Signaling), and subsequently β-actin loading control. […]

[3] = target: T1, STAT1 SH2 domain (Homo sapiens, UniProt P42224); assay: FP-based competitive binding assay, STAT1 SH2 domain; conditions: mean ± s.d., three experiments
T1 sequence (P42224 1-750): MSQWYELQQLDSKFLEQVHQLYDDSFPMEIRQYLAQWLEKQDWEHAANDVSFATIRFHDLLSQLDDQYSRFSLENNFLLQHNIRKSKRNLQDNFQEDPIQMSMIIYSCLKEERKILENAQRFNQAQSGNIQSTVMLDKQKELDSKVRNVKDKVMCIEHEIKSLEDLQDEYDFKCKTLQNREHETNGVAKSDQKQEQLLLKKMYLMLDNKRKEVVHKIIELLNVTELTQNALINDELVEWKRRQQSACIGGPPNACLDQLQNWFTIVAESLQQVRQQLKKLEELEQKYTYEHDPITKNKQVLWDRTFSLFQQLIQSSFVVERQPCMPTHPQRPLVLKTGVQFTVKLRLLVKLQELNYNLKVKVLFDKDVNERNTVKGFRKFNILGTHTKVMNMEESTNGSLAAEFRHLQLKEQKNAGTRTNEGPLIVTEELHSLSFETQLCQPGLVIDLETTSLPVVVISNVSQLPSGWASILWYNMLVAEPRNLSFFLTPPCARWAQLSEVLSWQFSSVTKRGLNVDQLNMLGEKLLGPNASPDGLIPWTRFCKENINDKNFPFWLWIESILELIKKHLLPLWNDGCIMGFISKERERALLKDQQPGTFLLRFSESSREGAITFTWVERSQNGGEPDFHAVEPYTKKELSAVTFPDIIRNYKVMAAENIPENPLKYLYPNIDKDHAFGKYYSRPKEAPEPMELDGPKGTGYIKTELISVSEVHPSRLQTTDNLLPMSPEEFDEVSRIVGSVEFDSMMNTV
Method: The STAT family display a high degree of homology. […] Vilsmeyer-Haack formylation of 2-hydroxy acetophenones led to 3-formyl chromones, which were subsequently converted to the acyl hydrazones by reaction with hydrazides (Fig. 1). The target molecules were tested for their abilities to inhibit binding of fluorophore-labeled peptides to the SH2 domains of STAT1[24], STAT3[25], and STAT5b[26] in assays based on fluorescence polarization (FP). The more distantly related SH2 domain of the tyrosine kinase Lck served as additional specificity control[27],[28].
Assays were performed essentially as described. In brief, protein was incubated with the test compounds for 1 h at room temperature at the following protein concentrations: STAT1: 400 nM, STAT3: 210 nM, STAT5b: 300 nM, Lck SH2: 35 nM. Subsequently, the corresponding fluorophore-labeled peptide was added: STAT1: (5-carboxyfluorescein)-GpYDKPHVL-OH, derived from the interferon-γ receptor[24]; STAT3: (5-carboxyfluorescein)-GpYLPQTV-NH2, derived from the gp130 subunit of the IL-6 receptor[25]; STAT5b: (5-carboxyfluorescein)-GpYLVLDKW-OH, derived from the erythropoietin receptor[26]; Lck SH2: (5-carboxyfluorescein)-GpYEEIP-OH, derived from the middle-T antigen. After a further hour of incubation, fluorescence polarization was measured in a plate reader (Tecan Infinite F500). Apparent IC50 data shown in Tables 1, 2, and S1 and the inhibition curves shown in Fig. 2a correspond to this time point. The majority of the pipetting work was carried out using a Biomek FXp workstation (Beckman-Coulter). Buffer composition: 10 mM Tris pH 8.0, 50 mM NaCl, 1 mM EDTA, 1 mM dithiothreitol (DTT), 0.1% Nonidet P-40, and 2% DMSO.

[4] = test system: MDA-MB-231 cells; assay: Apoptosis assay (Annexin V/7-AAD flow cytometry), MDA-MB-231 cells; assay type: cell-based, human; conditions: 24 h
Method: as §1

inhibition at 80 µM ([3]; at 80 µM) [%] | IC50 ([3]; 1 h with protein, then 1 h with peptide, read-out: STAT1 app. IC50) [µM] | SMILES | increase in rate of apoptosis relative to DMSO control [1] | STAT3 Tyr705 phosphorylation [2] | increase in rate of apoptosis relative to DMSO control [4]
36 ± 4 |  | CCC(C)(C)c1ccc2occ(/C=N/NC(=O)c3cccnc3)c(=O)c2c1 [Compound 9] | did not significantly increase apoptosis | did not reduce STAT3 Tyr705 phosphorylation | did not significantly increase apoptosis
 | 24 ± 4 | CC(C)(C)c1ccc2occ(/C=N/NC(=O)c3cccnc3)c(=O)c2c1 [Compound 8] | did not show an increase | dose-dependent inhibitory effect | up to three-fold increase
